Tests used:
[1] = tested on: murine IL-12 under the control of the RTS; assay: In vivo induction of transgene IL-12 from Ad-RTS-mIL-12 transduced B16 tumor cells; set-up: species or system C57BL/6 mice; conditions: for IL-12 expression levels after ligand treatment discontinued: ligand discontinued for 3 days; for transgene IL-12 expression in tumor and serum, dose pattern: oral gavage 0, 3, 10, 30, 50 mg/kg daily for 3 days
Description: The transgene tested in this example was murine IL-12 under the control of the RTS. Mouse melanoma cells (B16) were transduced with an adenoviral vector Ad-RTS-mIL-12 that carries the murine IL-12 transgene under the control of RTS. These cells were injected subcutaneously (s.c.) into the C57BL/6 mice (histocompatible with B16 cells) and the mice were treated with different doses of the R enantiomer and racemic 2-ethyl-3-methoxy-benzoic acid N′-(1-tert-butyl-butyl)-N′-(3,5-dimethyl-benzoyl)-hydrazide for three days. The control groups included the mice receiving untransduced B16 cells and the higher dose of ligand and another group receiving the transduced B116 cells and no ligand. […] Tumor extracts and serum were prepared and assayed for IL-12 by ELISA.
The remaining mice were used for testing the transgene turn-off when the ligand administration is discontinued for an additional 72 hours.
Materials and Methods: B16 cells were infected with Ad-RTS-mIL-12 (MOI=100) in vitro. After 48 h, 5×10^5 (B16, right flank) cells were injected s.c. into C57 BL/6 mice (10 mice/group). The R enantiomer and racemate ligands were dissolved in Labrasol by heating a 10 mg/mL mixture at 50° C. for 5 minutes. Both ligands were dissolved in Labrasol based on visual inspection. Activating ligands were provided via oral gavage at the following doses (0 mg/kg; 3 mg/kg; 10 mg/kg; 30 mg/kg and 50 mg/kg) daily for 3 days. Additional controls included B16-bearing mice receiving ligand only (50 mg/kg/day for 3 days and untreated tumor-bearing mice). Five mice/group were harvested for isolation of tumor lesions and peripheral blood. Tissue was homogenized in 1 ml total of phosphate-buffered saline. Lysate/serum was cryopreserved at −80° C. The alternate 5 mice/group were allowed to sit for an additional 72 h in the absence of further ligand administration. These latter 5 mice/group were harvested for isolation of tumor lesions and peripheral blood. Tissue was homogenized as above, and cryopreserved and lysate/serum was cryopreserved at −80° C. Specimens were thawed at 37° C. in water bath and analyzed for mIL-12p70 and also mIFN-γ, a corollary IL-12-dependent cytokine important for CTL trafficking into tumors, using specific ELISAs (BD-Pharmingen).

[2] = tested on: MDR1-MDCK cells; assay: Blood brain barrier penetration potential using MDR1-MDCK cells; assay type: in vitro ADME
Description: The test compounds were prepared as a 5 μM solution in HBSSg with a maximum DMSO concentration ≤1%. Confluent monolayers of MDR1-MDCK cells, 7 to 11 days old were prepared. The receiver well was prepared with 1% BSA in modified Hanks buffer (HBSSg), and the apical and basolateral sides were maintained at pH 7.4±0.2. Two monolayers were dosed in each direction (N=2): the apical side was dosed for (A→B) assessment and the basolateral side was dosed for (B→A) assessment. Test compound concentration was measured for both apical and basolateral sides at a time point of 120 minutes using a generic LC/MS/MS method with a minimum 4 point calibration curve. The reported values in FIG. 14: the percent recovery of the test compound from the Transwell® wells containing MDR1-MDCK cell monolayers; apparent permeability (Papp) in both directions; efflux ratio (Papp B→A)/(Papp A→B); and the blood-brain barrier penetration potential classification. […] Also, R enantiomer experiences less efflux. […] Higher blood-brain barrier penetration is a significant advantage for medical indications where central nervous system (CNS) penetration is required.

[3] = tested on: IL-12 transgene in transduced AdDCs; assay: In vitro IL-12 transgene induction by transduced AdDCs from healthy volunteers; assay type: cell-based, human; conditions: observed in 2 out of the 3 AdDC preparations
Description: Immature DCs are harvested, counted and tested for viability. Approximately 6-7×10^7 DCs are transduced with the adenoviral vector at the optimal multiplicity of infection (the optimal MOI, between 500 and 1000, to be finalized) for the optimal viral adsorption time (between 2 h and 4 h, to be finalized). After transduction, the cells are washed repeatedly to remove any unadsorbed viral particles. Aliquots are set aside for sterility, endotoxin, mycoplasma, DC Phenotype and IL-12 transgene induction assays. The target dose of 5×10^7 cells is held at 4° C. in saline until release testing is complete.
The in vitro testing of the IL-12 transgene induction by the transduced AdDCs takes a minimum of two days for the results to be available and therefore IL-12 production in response to (R)-2-ethyl-3-methoxy-benzoic acid N′-(1-tert-butyl-butyl)-N′-(3,5-dimethyl-benzoyl)-hydrazide will not be a release criterion for the intratumoral injection of the AdDCs. […] Therefore, the in vitro IL-12 induction results are used for analysis of the treatment outcome. As such, the transduced AdDCs are used for injection after viral transduction and washing. Any left-over untransduced and transduced DCs are cryopreserved for future analysis as necessary.

[4] = Solubility in aqueous polysorbate 80, Assay 4; assay type: physicochemical
Excerpt: Equilibrium solubility in formulation excipients and biological fluids influences drug bioavailability, although kinetics of dissolution may also be a limiting factor in determining bioavailability. The solubilities of R enantiomer and racemate of 2-ethyl-3-methoxy-benzoic acid N′-(1-tert-butyl-butyl)-N′-(3,5-dimethyl-benzoyl)-hydrazide were established quantitatively in aqueous preparations of the pharmaceutical surfactant polysorbate 80 and then the intrinsic dissolution rate of compacted test substance was observed. Mixtures of racemate and R enantiomer in 0.5%, 1%, and 1.5% polysorbate 80 solutions were prepared by addition of 20+/−1 mg test substance in a 2 mL Eppendorf vial, followed by 500 mg polysorbate solution. The mixture was bead-beaten for 120 second, shaken at 25° C. for 16 to 24 hours, and filtered using a Spin-X (0.2 μM). The pH of the filtrate was recorded. The concentration of test substance in the filtrate was measured by quantitative HPLC analysis (FIG. 12). The R enantiomer is 2-3× more soluble in 1.0 and 1.5% polysorbate 80 solutions.

[5] = tested on: B16 melanoma; assay: Anti-tumor efficacy with intratumoral transduced DCs in B16 melanoma mouse model; assay type: in vivo, C57/BL6 mice
Description: A comparative analysis of various administration routes and doses of (R)-2-ethyl-3-methoxy-benzoic acid N′-(1-tert-butyl-butyl)-N′-(3,5-dimethylbenzoyl)-hydrazide on the anti-tumor efficacy of intra-tumorally delivered DCs transduced with an adenoviral vector encoding murine interleukin-12p70 (DC-SP1(IL-12p70)) were carried out in a B16 melanoma mouse model. […] Optimal anti-tumor effects occurred at ≥30 mg/kg (R)-2-ethyl-3-methoxy-benzoic acid N′-(1-tert-butyl-butyl)-N′-(3,5-dimethyl-benzoyl)-hydrazide dose administered with (DC-SP1(IL-12p70)) therapy.
This drug dependent effect was associated with: transgene expression in the tumor and DLN; prolonged Ad-DCs survival in the tumor microenvironment; migration and persistence of AdDCs in the DLN; and induction of anti B16 CD8+ T cells.
When tumor-free animals were re-challenged, on day 50 (post-initial tumor inoculation), these animals were refractory to B16 melanoma, but not MC38 colon carcinoma, progression.

Compound	IL-12 expression levels after ligand treatment discontinued [1]	transgene IL-12 expression in tumor and serum, dose pattern [1]	blood-brain barrier penetration potential classification [2]	induced IL-12 expression level [3] [ng/million cells/24 h]	IFN-γ levels in tumor and serum ([1]; mouse, in vivo)	efflux, compared [2]	apparent permeability (Papp), compared ([2]; A→B and B→A, 5 μM, 120 minutes)	solubility relative to racemate ([4]; 1.0 and 1.5% polysorbate 80 solutions, 25° C.)	solubility of racemate and R enantiomer compared ([4]; deionized water and 0.5% polysorbate 80)	protective immunity on tumor re-challenge ([5]; 10^7 AdDCs plus 13 day ligand treatment, re-challenge day 50)	tumor regression and animal survival ([5]; intratumoral AdDCs carrying murine IL-12, systemic ligand within 48 hours following AdDCs injection)	dose for optimal anti-tumor effects ([5]; with DC-SP1(IL-12p70) therapy) [mg/kg]	anti-tumor efficacy ([5]; with DC-SP1(IL-12p70) therapy, i.p. injection, oral gavage or diet admix)
CCCC(N(NC(=O)c1cccc(OC)c1CC)C(=O)c1cc(C)cc(C)c1)C(C)(C)C (racemic) [rac-1, rac-2-ethyl-3-methoxy-benzoic acid N′-(1-tert-butyl-butyl)-N′-(3,5-dimethyl-benzoyl)-hydrazide]	dropped to similar proportions in all the treatment groups	dose-dependent pattern	low										
CCC[C@@H](N(NC(=O)c1cccc(OC)c1CC)C(=O)c1cc(C)cc(C)c1)C(C)(C)C [Example 1, (R)-3,5-Dimethyl-benzoic Acid N-(1-tert-butyl-butyl)-N′-(2-ethyl-3-methoxy-benzoyl)-hydrazide]	dropped to similar proportions in all the treatment groups	dose-dependent pattern	moderately penetrating through the blood-brain barrier	80	clearly showed enhanced expression	less efflux	more permeable than racemate in both A→B and B→A directions	2-3 ×	comparable	protective immunity that was tumor-specific	complete regression of tumor and prolonged animal survival	≥ 30	anti-tumor efficacy was demonstrated
